We go through 6 compounds from patent US8268789B2, “PAR-2 antagonists” (Kowa Company, Ltd., priority 2004, dated 2012).

Like-named read-outs stand apart in the source and are kept apart here.

For this test, the target named is T1, PAR-2 (Homo sapiens, UniProt P55085).
T1 construct: intracellular Ca^2+ level change by PAR-2 agonist in human keratinocytes expressing PAR-2; host or cells: primary human keratinocytes, passage 3 to 5
T1 sequence (P55085 26-397): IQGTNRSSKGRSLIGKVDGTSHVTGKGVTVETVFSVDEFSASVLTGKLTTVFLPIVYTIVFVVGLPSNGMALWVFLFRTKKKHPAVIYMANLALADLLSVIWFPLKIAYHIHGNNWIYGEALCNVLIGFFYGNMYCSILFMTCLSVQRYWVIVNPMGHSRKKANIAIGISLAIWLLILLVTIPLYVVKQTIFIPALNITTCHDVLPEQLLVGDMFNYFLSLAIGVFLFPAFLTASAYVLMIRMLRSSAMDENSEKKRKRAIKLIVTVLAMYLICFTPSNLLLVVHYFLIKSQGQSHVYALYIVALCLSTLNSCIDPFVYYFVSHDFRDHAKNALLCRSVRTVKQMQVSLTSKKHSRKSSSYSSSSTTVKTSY
The test is described as follows: Assay of intracellular Ca2+ level in human keratinocytes stimulated with PAR-2 agonist peptide. Type of test: cell-based. The conditions noted are these: for inhibition at 10 µg/mL: read-out: Inhibition Rate (%) (Means ± Standard Error, n = 3). As for the experimental part:
The keratinocytes were subjected to passage culture with trypsin/EDTA, and the cells whose passage number was 3 to 5 were used in the experiment.
Flex Station Calcium assay kit 2, which is a fluorescent reagent kit for calcium assay, was purchased from Molecular Devices and used in reagent preparation according to an accompanying protocol. Probenecid, Calcium ionophore (A23187) was purchased from Sigma. The human keratinocytes were seeded at a density of 40,000 cells/well to a 96-well black-well clear-bottom plate (Corning) and cultured for 24 hours until the cells became subconfluent. After washing once with KBM, 80 μl KBM was added to each well. Subsequently, a fluorescent dye solution containing an equal volume of Probenecid at a final concentration of 2 mM (HBSS solution, pH 7.4) was added to each well and incubated at 37° C. for 1 hour. Thereafter, the plate was left for 15 minutes at room temperature and assayed at room temperature (25° C.). The test chemical and the stimulants were prepared by diluting KBM having 10-fold concentration of a final concentration respectively which were then added in a volume of 20 μL respectively for assay. Measurement was carried out with a fluorescent plate reader FlexStation (Molecular Devices) compatible with a 96-well plate equipped with an injector. The measurement through the bottom was carried out for 180 seconds at 2-second intervals at an excitation wavelength of 475 nm and at a measurement wavelength of 525 nm. The chemical was added 17 seconds after the measurement was initiated.

[1] abbreviates: compound final concentration 10 μg/mL, PAR-2 agonist SLIGKV 10 μM, cultured human keratinocytes, (1-AUCantagonist/AUCcontrol)×100 of time-fluorescence intensity curve.

Regarding `NCCCC[C@H](NC(=O)CNC(=O)Nc1ccc2c(c1)c(CN1CCCC1)cn2Cc1c(Cl)cccc1Cl)C(=O)N[C@@H](Cc1ccccc1)C(=O)NC(c1ccccc1)c1ccccc1` [Example 10, [[N-[1-(2,6-dichlorophenyl)methyl]-3-(1-pyrrolidinylmethyl)-1H-indol-5-yl]aminocarbonyl]-glycine-L-lysine-L-phenylalanine-N-benzhydrylamide], the inhibition at 10 µg/mL is 58.4 ± 13%. Where the note is “compound final concentration 10 μg/mL, SLIGKV 10 μM, human keratinocytes, FIG. 1”, the “PAR-2 inhibitory action (inhibition of the agonist-induced increase in intracellular Ca2+ level), in words” value is “inhibition was recognized”.

Consider `NCCCC[C@H](NC(=O)CNC(=O)Nc1ccc2c(c1)c(CN1CCCC1)cn2Cc1c(Cl)cccc1Cl)C(=O)N[C@@H](Cc1ccccc1)C(=O)NCc1ccccc1` [Example 21, [[N-[1-(2,6-dichlorophenyl)methyl]-3-(1-pyrrolidinylmethyl)-1H-indol-5-yl]aminocarbonyl]-glycine-L-lysine-L-phenylalanine-N-benzylamide], for which the inhibition at 10 µg/mL under setting [1] is 14.2 ± 10%. On the same count and under the same terms, in the case of `NCC[C@H](NC(=O)CNC(=O)Nc1ccc2c(c1)c(CN1CCCC1)cn2Cc1c(Cl)cccc1Cl)C(=O)N[C@@H](Cc1ccccc1)C(=O)NCc1ccccc1` [Example 20, [[N-[1-(2,6-dichlorophenyl)methyl]-3-(1-pyrrolidinylmethyl)-1H-indol-5-yl]aminocarbonyl]-glycine-L-α,γ-diaminobutyrate-L-phenylalanine-N-benzylamide] it was 33.6 ± 16.8%; in that of `CC(C)n1ccc2cc(NC(=O)NCC(=O)N[C@@H](CCN)C(=O)N[C@@H](Cc3ccccc3)C(=O)NCc3ccccc3)ccc21` [Example 24, [[N-isopropyl-1H-indol-5-yl]aminocarbonyl]-glycine-L-α,γ-diaminobutyrate-L-phenylalanine-N-benzylamide], 15.1 ± 10.5%; in that of `NCC[C@H](NC(=O)CNC(=O)Nc1ccc2c(c1)c(CN1CCCC1)cn2Cc1c(Cl)cccc1Cl)C(=O)N[C@@H](Cc1ccccc1)C(=O)NC(c1ccccc1)c1ccccc1` [Example 11, [[N-[1-(2,6-dichlorophenyl)methyl]-3-(1-pyrrolidinylmethyl)-1H-indol-5-yl]aminocarbonyl]-glycine-L-α,γ-diaminobutyrate-L-phenylalanine-N-benzhydrylamide], 32 ± 2.3%. On the same count and under the same terms, next, `CN1CCN(Cc2cn(Cc3c(Cl)cccc3Cl)c3ccc(NC(=O)NCC(=O)N[C@@H](CCCCN)C(=O)N[C@@H](Cc4ccccc4)C(=O)NC(c4ccccc4)c4ccccc4)cc23)CC1` [Example 12, [[N-[1-(2,6-dichlorophenyl)methyl]-3-[1-(4-methylpiperazinyl)methyl]-1H-indol-5-yl]aminocarbonyl]-glycine-L-lysine-L-phenylalanine-N-benzhydrylamide]: 52.2 ± 1.8%.

The inhibition is the drop in the measured response relative to a control, in per cent.
